Laboratory results taken from ChEMBL document CHEMBL5543131, “Discovery of Highly Potent Solute Carrier 13 Member 5 (SLC13A5) Inhibitors for the Treatment of Hyperlipidemia” (J Med Chem, 2024).
Active and inactive are the calls of the source. No cut-off for these calls is given here.

What was measured:
Mus musculus [1] = experiment: Lipid lowering activity in starvation-induced hyperlipidemic male C57BL/6J mouse model assessed as decrease in number of lipid droplets in liver starved for 48 hrs followed by intraperitoneal administration of compound and measured after 2 hrs by Hematoxylin and eosin staining based analysis; type: functional, organism-based; settings: dose 10-30 mg/kg, route ip
AML12 [2] = experiment: Lipid lowering effect on PCN-induced lipid accumulation in mouse AML12 cells assessed as decrease in triglyceride level preincubated with compound for 30 mins followed by PCN addition and measured after 24 hrs; type: functional, cell-based; settings: dose 3-30 µM, time 24.5 hrs
[3] = biological target: Na(+)/citrate cotransporter (Homo sapiens) (UniProt Q86YT5); experiment: Potency index, ratio of citrate Km to test compound Km for binding affinity to SLC13A5 (unknown origin)
Na(+)/citrate cotransporter (Homo sapiens), sequence (Q86YT5 whole entry, looked up): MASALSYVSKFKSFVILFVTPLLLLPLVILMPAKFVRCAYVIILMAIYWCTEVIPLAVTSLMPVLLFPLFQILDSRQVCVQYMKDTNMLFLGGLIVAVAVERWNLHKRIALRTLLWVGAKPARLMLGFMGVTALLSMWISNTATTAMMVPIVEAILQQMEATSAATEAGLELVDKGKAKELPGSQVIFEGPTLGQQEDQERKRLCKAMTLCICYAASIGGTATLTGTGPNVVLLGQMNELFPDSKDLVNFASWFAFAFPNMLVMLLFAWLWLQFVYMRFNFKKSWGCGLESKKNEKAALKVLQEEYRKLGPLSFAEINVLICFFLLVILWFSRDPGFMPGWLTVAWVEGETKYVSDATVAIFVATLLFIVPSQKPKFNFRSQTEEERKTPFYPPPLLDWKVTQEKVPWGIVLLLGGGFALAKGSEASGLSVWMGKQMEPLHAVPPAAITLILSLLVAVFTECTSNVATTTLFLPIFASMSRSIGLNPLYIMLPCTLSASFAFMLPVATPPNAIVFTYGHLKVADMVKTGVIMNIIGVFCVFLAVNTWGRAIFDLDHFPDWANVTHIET

HepG2 [4] = experiment: Lipid lowering effect on PCN-induced lipid accumulation in human HepG2 cells assessed as decrease in ACLY mRNA expression level at 3 to 30 uM by RT-qPCR analysis; type: functional, cell-based; settings: dose 3-30 µM
HepG2 [5] = experiment: Lipid lowering effect on PCN-induced lipid accumulation in human HepG2 cells assessed as decrease in HMGCR mRNA expression level at 3 to 30 uM by RT-qPCR analysis; type: functional, cell-based; settings: dose 3-30 µM
Mus musculus [6] = experiment: Lipid lowering activity in starvation-induced hyperlipidemic male C57BL/6J mouse model assessed as decrease in NEFA level in plasma at 10 to 30 mg/kg, ip starved for 48 hrs followed by compound administration and measured after 2 hrs; type: functional, organism-based; settings: dose 10-30 mg/kg
AML12 [7] = experiment: Downregulation of ACLY mRNA expression in oleic and palmitic acid induced mouse AML12 cells by RT-qPCR analysis; type: functional, cell-based; settings: dose 3-30 µM
HepG2 [8] = experiment: Lipid lowering effect on PCN-induced lipid accumulation in human HepG2 cells assessed as decrease in intracellular triglyceride level; type: functional, cell-based; settings: dose 3-30 µM
[9] = biological target: T1, Na(+)/dicarboxylate cotransporter 3 (Homo sapiens) (UniProt Q8WWT9); experiment: Inhibition of NaDC3 (unknown origin) citrate transport activity
T1 sequence (whole entry): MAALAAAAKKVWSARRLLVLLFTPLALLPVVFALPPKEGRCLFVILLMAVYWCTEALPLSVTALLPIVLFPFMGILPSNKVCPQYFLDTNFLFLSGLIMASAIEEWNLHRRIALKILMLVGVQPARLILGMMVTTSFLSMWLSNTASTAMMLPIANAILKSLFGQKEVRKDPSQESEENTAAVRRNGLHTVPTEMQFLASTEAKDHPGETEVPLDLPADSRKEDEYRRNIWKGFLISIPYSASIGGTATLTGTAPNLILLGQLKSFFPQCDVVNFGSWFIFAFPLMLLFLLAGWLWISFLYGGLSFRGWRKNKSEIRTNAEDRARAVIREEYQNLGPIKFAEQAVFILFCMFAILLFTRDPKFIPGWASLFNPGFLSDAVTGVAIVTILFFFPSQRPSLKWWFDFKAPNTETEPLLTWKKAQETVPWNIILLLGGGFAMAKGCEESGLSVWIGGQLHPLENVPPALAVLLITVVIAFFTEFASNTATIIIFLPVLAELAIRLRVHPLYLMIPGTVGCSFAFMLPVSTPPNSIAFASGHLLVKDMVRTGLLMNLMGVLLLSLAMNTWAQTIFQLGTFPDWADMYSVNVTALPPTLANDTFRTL

Mus musculus [10] = experiment: In vivo inhibition of SLC13A5 in starvation-induced hyperlipidemic male C57BL/6J mouse model assessed as decrease in liver citrate level at 30 mg/kg, ip starved for 48 hrs followed by compound administration and measured after 2 hrs; type: functional, organism-based
HepG2 [11] = experiment: Lipid lowering effect on PCN-induced lipid accumulation in human HepG2 cells assessed as decrease in FASN mRNA expression level at 3 to 30 uM by RT-qPCR analysis; type: functional, cell-based; settings: dose 3-30 µM
AML12 [12] = experiment: Lipid lowering effect on PCN-induced lipid accumulation in mouse AML12 cells assessed as decrease in HMGCR mRNA expression level at 3 to 30 uM preincubated with compound for 30 mins followed by PCN addition and measured after 24 hrs by RT-qPCR analysis; type: functional, cell-based; settings: dose 3-30 µM, time 24.5 hrs
Mus musculus [13] = experiment: Lipid lowering activity in PCN-induced hyperlipidemic male C57BL/6J mouse model assessed as decrease in FASN mRNA expression level preadministered intragastrically with compound for 15 to 30 mins followed by PCN administration and measured after 7 days by RT-qPCR analysis; type: functional, organism-based; settings: dose 10-30 mg/kg, route ig, time 15-10110 min
Hepatocyte [14] = experiment: Lipid lowering effect on PCN-induced lipid accumulation in mouse Primary hepatocyte assessed as decrease in intracellular triglyceride level; type: functional, cell-based; settings: dose 3-30 µM
Hepatocyte [15] = experiment: Lipid lowering effect on PCN-induced lipid accumulation in mouse Primary hepatocyte assessed as decrease in FASN mRNA expression level at 3 to 30 uM by RT-qPCR analysis; type: functional, cell-based; settings: dose 3-30 µM
AML12 [16] = experiment: Effect on SCL13A5 mRNA expression in PCN-induced mouse AML12 cells at 3 to 30 uM preincubated with compound for 30 mins followed by PCN addition and measured after 24 hrs by RT-qPCR analysis; type: functional, cell-based; settings: dose 3-30 µM, time 24.5 hrs
Mus musculus [17] = experiment: Lipid lowering activity in PCN-induced hyperlipidemic male C57BL/6J mouse model assessed as decrease in lipid accumulation in liver at 30 mg/kg, IG preadministered with compound for 15 to 30 mins followed by PCN administration and measured after 7 days by H&E staining based analysis; type: functional, organism-based; settings: time 15-10110 min
Mus musculus [18] = experiment: Lipid lowering activity in starvation-induced hyperlipidemic male C57BL/6J mouse model assessed as downregulation of ACC1 gene expression level starved for 48 hrs followed by oral administration of compound and measured after 2 hrs by RT-qPCR analysis; type: functional, organism-based; settings: dose 10-30 mg/kg
AML12 [19] = experiment: Effect on lipid accumulation in oleic and palmitic acid induced mouse AML12 cells assessed as decrease in triglyceride level; type: functional, cell-based; settings: dose 3-30 µM
Mus musculus [20] = experiment: Lipid lowering activity in PCN-induced hyperlipidemic male C57BL/6J mouse model assessed as decrease in liver total cholesterol level at 10 to 30 mg/kg, IG preadministered with compound for 15 to 30 mins followed by PCN administration and measured after 7 days; type: functional, organism-based; settings: dose 10-30 mg/kg, time 15-10110 min
Hepatocyte [21] = experiment: Lipid lowering effect on PCN-induced lipid accumulation in mouse Primary hepatocyte assessed as decrease in ACC1 mRNA expression level at 3 to 30 uM by RT-qPCR analysis; type: functional, cell-based; settings: dose 3-30 µM
AML12 [22] = experiment: Effect on SCL13A5 mRNA expression in oleic acid and palmitic acid induced mouse AML12 cells at 3 to 30 uM by RT-qPCR analysis; type: functional, cell-based; settings: dose 3-30 µM
HepG2 [23] = experiment: Lipid lowering effect on oleic and palmitic acid induced lipid accumulation in human HepG2 cells assessed as decrease in intracellular triglyceride level; type: functional, cell-based; settings: dose 3-30 µM
Hepatocyte [24] = experiment: Lipid lowering effect on PCN-induced lipid accumulation in mouse Primary hepatocyte assessed as decrease in ACLY mRNA expression level at 3 to 30 uM by RT-qPCR analysis; type: functional, cell-based; settings: dose 3-30 µM
Mus musculus [25] = experiment: Lipid lowering activity in starvation-induced hyperlipidemic male C57BL/6J mouse model assessed as downregulation of FASN gene expression level starved for 48 hrs followed by oral administration of compound and measured after 2 hrs by RT-qPCR analysis; type: functional, organism-based; settings: dose 10-30 mg/kg
Mus musculus [26] = experiment: Lipid lowering activity in starvation-induced hyperlipidemic male C57BL/6J mouse model assessed as decrease in triglyceride level in liver at 10 to 30 mg/kg, ip starved for 48 hrs followed by compound administration and measured after 2 hrs; type: functional, organism-based; settings: dose 10-30 mg/kg

**Q.** `O=C(O)CC(O)(CCc1ccc(-c2ccccc2)cc1)C(=O)O` (stereo unspecified) was tested. Which Activity (Mus musculus [1]) did it give?
**A.** Dose-Dependent Effect

**Q.** What about the Activity (AML12 [2]) of the same compound?
**A.** Dose-Dependent Effect

**Q.** What about the Ratio [3] of the same compound?
**A.** 2

**Q.** What about the Activity (HepG2 [4]) of the same compound?
**A.** Active

**Q.** What about the Activity (HepG2 [5]) of the same compound?
**A.** Active

**Q.** What about the Activity (Mus musculus [6]) of the same compound?
**A.** Active

**Q.** What about the Activity (AML12 [7]) of the same compound?
**A.** Dose-Dependent Effect

**Q.** What about the Activity (HepG2 [8]) of the same compound?
**A.** Dose-Dependent Effect

**Q.** What about the inhibition [9] of the same compound?
**A.** inactive

**Q.** What about the inhibition (Mus musculus [10]) of the same compound?
**A.** Active

**Q.** What about the Activity (HepG2 [11]) of the same compound?
**A.** Active

**Q.** And the Activity (AML12 [12])?
**A.** Active

**Q.** And the Activity (Mus musculus [13])?
**A.** Dose-Dependent Effect

**Q.** And the Activity (Hepatocyte [14])?
**A.** Dose-Dependent Effect

**Q.** And the Activity (Hepatocyte [15])?
**A.** Active

**Q.** What about the Activity (AML12 [16]) of the same compound?
**A.** inactive

**Q.** And the Activity (Mus musculus [17])?
**A.** Active

**Q.** And the Activity (Mus musculus [18])?
**A.** Dose-Dependent Effect

**Q.** What about the Activity (AML12 [19]) of the same compound?
**A.** Dose-Dependent Effect

**Q.** And the Activity (Mus musculus [20])?
**A.** Active

**Q.** And the Activity (Hepatocyte [21])?
**A.** Active

**Q.** And the Activity (AML12 [22])?
**A.** inactive

**Q.** And the Activity (HepG2 [23])?
**A.** Dose-Dependent Effect

**Q.** What about the Activity (Hepatocyte [24]) of the same compound?
**A.** Active

**Q.** And the Activity (Mus musculus [25])?
**A.** Dose-Dependent Effect

**Q.** And the Activity (Mus musculus [26])?
**A.** Active
